According to EPA's ToxValDB 9.5 (doi:10.2903/j.efsa.2017.4976):
≈ marks a conversion by molar mass, not a printed value.

Columns and labels:
Colinus virginianus = settings: for LD50: acute, oral, mortality
Oryctolagus sp. = settings: reproduction developmental
Daphnia magna = settings: chronic/long-term; duration: 21 days; reproduction
Tagia sp. = settings: chronic/long-term; growth
Rattus norvegicus = settings: acute; oral; mortality
Elodea callitrichoides = settings: chronic/long-term; duration: 42 days
Apis mellifera = settings: acute, mortality
Hypoaspis aculeifer = settings: chronic/long-term; mortality

## CNC1=C(c2cccc(C(F)(F)F)c2)C(=O)C(c2ccccc2)O1 (stereo not drawn) [Flurtamone]
Colinus virginianus; diet
  LD50: > 1580 mg/kg-day
Colinus virginianus
  LD50: > 2530 mg/kg
Colinus virginianus; reproduction developmental
  NOEL: 7.3 mg/kg-day
Oryctolagus sp.
  NOAEL: 20 mg/kg-day
Daphnia magna
  NOEC: 0.071 mg/L
Pimephales promelas; acute, duration: 96 hours, oral, feed, mortality
  LC50: 6.64 µg/mL (≈ 19.9 µM)
Pimephales promelas; chronic/long-term, growth
  NOEC: 0.188 mg/L
Tagia sp.
  NOEC: 47.5 mg/kg
Rattus norvegicus
  LD50: > 5000 mg/kg-day
Elodea callitrichoides
  NOEC: 0.001 mg/L
Apis mellifera; dermal
  LD50: > 100 µg/piece
Apis mellifera; oral, unspecified
  LD50: > 105 µg/piece
Hypoaspis aculeifer
  NOEC: 89 mg/kg
